# Patent US20250314644A1, “METHODS COMPRISING DETECTION OF ADP-HEPTOSE” (CHILDREN'S HOSPITAL MEDICAL CENTER, priority 2023, published 2025)
# Legend:
# Dnmt3a^−/− HSCs [1] = assay: ADP-heptose treatment of low-dose irradiated chimeric mice: donor HSC number in BM, EdU proliferation, secondary transplant; assay type: in vivo, mouse
# Excerpt: To model pre-leukemic clonal hematopoiesis, chimeric mice were generated as aas follows. Briefly, mixture of 1×10^6 whole bone marrow cells (WBM) were obtained from Poly (I:C) treated wild-type (Dnmt3a^+/+; MxCre^+, called Dnmt3a^WT) or mutant mice (Dnmt3a^f/f; MxCre^+, called Dnmt3a^KO) or double mutant mice (Dnmt3a^f/f; MxCre^+; Alpk1^KO, called Dnmt3a^KO; Alpk1^KO) (CD45.2^+), and transplanted into low-dose (2.5 Gy) irradiated recipient mice (CD45.1^+; 6-10 weeks of age). 8 weeks post-transplant, chimeric mice were treated with either water (H2O) or DSS (2.5%) for 1 week, and allowed to recover for 1 more week on water after which flow cytometry was performed on BM. In separate experiment, chimeric mice were pre-treated with broad spectrum antibiotics (ABX) for 4 weeks, and then subjected to DSS for 1 week after which flow cytometry performed on BM. In a separate set of experiment, chimeric mice were treated with either H2O or ADP-heptose (0.5 mg/kg) for 2 weeks, and flow cytometry performed after 2 more weeks on BM. In all the experiments, secondary transplantation was performed by purifying donor HSCs (CD45.2^+Lin^−Sca-1^+c-Kit^+Flk2^−CD150^+CD48^−) and transplanting 100 HSCs with 200,000 helper WBM cells (CD45.1+) into lethally irradiated (8 Gy) recipient mice (CD45.1^+), and donor chimerism in PB examined by flow cytometry.
# Dnmt3a^−/− HSCs [2] = assay: Serial colony replating; assay type: cell-based, mouse; settings: compared to vehicle
# Experimental: (§1) (A) Heatmap representing gene expression analysis of HSPCs isolated from Dnmt3a^WT or Dnmt3a^KO or Dnmt3a^KO; Alpk1^KO mice treated with either H2O or ADP-heptose for 90 minutes in vitro as determined by RNA-sequencing from three independent replicates (1.5 fold; P<0.05). (B) Gene Set Enrichment Analysis (GSEA) of Dnmt3a^KO cells treated with ADP-heptose versus H2O. […] NES, normalized enrichment score. Absolute enrichment score (ES) and corresponding P value are shown for each pathway. (D) Enrichment of transcription factors was determined with the ENCODE and CHIP Enrichment Analysis (ChEA) libraries using genes that are overexpressed in ADP-heptose-stimulated Dnmt3a^WT versus H2O-stimulated Dnmt3a^WT (left panel) or ADP-heptose-stimulated Dnmt3a^KO versus H2O-stimulated Dnmt3a^KO HSPCs (right panel). (E) Representative flow cytometric profile of EdU+HSCs after ADP-heptose or H2O treatment. […] In each plating, colonies were scored at day 14. […] (L) Colony forming potential of Dnmt3a^WT or Dnmt3a^KO HSPCs was evaluated upon treatment with either vehicle, ADP-heptose, or ADP-heptose and UBE2N inhibitor. (M) CD34+ MDS BM and normal CD34+ BM cells treated with vehicle, ADP-heptose, or ADP-heptose and UBE2N inhibitor were evaluated for colony formation in methylcellulose. […]
# [3] = test system: Dnmt3a; Alpk1 deficient HSCs; assay: Serial colony replating; assay type: cell-based, mouse
# Experimental: as §1
compound,measurement,setting,value
"Nc1ncnc2c1ncn2[C@@H]1O[C@H](COP(=O)(O)OP(=O)(O)O[C@@H]2O[C@H]([C@H](O)CO)[C@@H](O)[C@H](O)[C@@H]2O)[C@@H](O)[C@H]1O [ADP-heptose, ADP-D-glycero-β-D-manno-heptose]",expansion of Dnmt3a^−/− HSCs in BM,Dnmt3a^−/− HSCs [1]; ADP-heptose 0.5 mg/kg for 2 weeks,rapid and significant expansion
same,proliferation of HSCs in vivo (EdU),"Dnmt3a^−/− HSCs [1]; Dnmt3a^−/− HSCs, within 2 weeks",significant proliferation
same,self-renewal in secondary recipient mice,Dnmt3a^−/− HSCs [1]; secondary transplant of donor HSCs,sustained self-renewal
same,serial colony formation,Dnmt3a^−/− HSCs [2],significantly increased serial colony formation
same,colony replating response to ADP-heptose,[3],did not respond
